Molecules are shown by their SMILES. Converted amounts (≈) assume the structure as drawn. “And” between values parts separate entries of the source, which are not always exact repeats. Equal entries are not always repeated.

Data set [1] is described as follows: DPPH free radical scavenging test. Here is the method:
The DPPH biochemical test is used to determine the antioxidant potential of tested compounds. This method is based on the ability of compounds to reduce the stable dark purple 2,2-diphenyl-1-picrylhydrazyl radical (DPPH) to yellow diphenyl-picrylhydrazine. The following concentrations of the tested cannabinoids were prepared: 25, 100, and 200 μg/mL in pure ethanol. Next, the DPPH solution (0.2 mg/mL in ethanol) was prepared. As a quantitative standard, Trolox in increasing concentrations (1–50 μg/mL) was prepared in ethanol. The procedure was carried out as follows: 100 µL of the specified concentrations of the tested cannabinoids or standard points were added to the wells of a 96-well plate in eight replicates. Next, 100 μL of a DPPH solution was added to 100 μL of each sample or standard in a 96-well plate. Subsequently, 20 min. incubation at room temperature was carried out, and spectrophotometric reading was performed at 515 nm using an EL800 Universal Microplate Reader (BioTek Instruments, Winooski, VT, USA). Decreasing absorbance meant increasing antioxidant activity of the preparations. The final value of the free radical scavenging activity of the cannabinoids was calculated based on the standard curve and the following formula:DPPH scavenging effect (%) = [(Xcontrol − Xcompound/Xcontrol) × 100]
Xcontrol is the absorbance of the control, and Xcompound is the absorbance in the presence of cannabinoids
(Loss of DPPH colour is used to gauge radical scavenging.)

The test system of data set [2] is HT29 cells. Description: MTT assay, metabolic activity of HT29 cells. It counts as cell-based. Conditions: Homo sapiens, HT-29; HT29 colon tumor cells, 24 h incubation; read-out: IC50 Values (MTT method). As for the experimental part: The HT29 cell line (ATCC no. HTB-38) (human colon adenocarcinoma) was used in the present study. Cells were cultivated in RPMI 1640 culture medium with 10% fetal calf serum (FCS) (GibcoTM, Paisley, UK), supplemented with antibiotics (100 U/mL penicillin and 100 μg/mL streptomycin) (Sigma, St. Louis, MO, USA). The cell culture was performed in standard conditions, i.e., at 37 °C in a humidified atmosphere with 5% CO2. The CCD 841 CoTr cell line (ATCC no. CRL-1807) (human normal colon epithelium) was cultivated in RPMI 1640 +DMEM (1:1) medium (Sigma, St. Louis, MO, USA) with 10% FCS and the addition of antibiotics. The culture was carried out at 34 °C in a 5% CO2/95% air atmosphere.
After seeding (1 × 10^5 cells/mL) in a 96-well plate, the cells were incubated for 24 h. Thereafter, the tested compounds (100 μL) at a concentration range of 0–200 μg/mL in the culture medium were added to the wells (100 μL). The incubation lasted for 24 h. After that time, an MTT solution (5 mg/mL, 25 μL/well) was added to each well. The incubation was continued for another 3 h. After the incubation, 10% sodium dodecyl sulfate (SDS) in 0.01 M HCl (100 μL) was added in order to dissolve the purple formazan crystals. Solubilization was carried out overnight. Finally, spectrophotometric measurement was performed at 570 nm using an EL800 Universal Microplate Reader (BioTek Instruments, Winooski, VT, USA).
For orientation: Formazan colour is commonly taken as a measure of viable cells.

Data set [3] is described as follows: Ferric-reducing antioxidant power assay (FRAP). Here is the method:
The antioxidant activity in the FRAP method determines the ability of the analyzed compounds to reduce iron ions. This allowed for the direct determination of the reducing capacity of the tested cannabinoids. The principle of the method was based on measuring the reduction in the tPtZ compound (iron-2,4,6-tripyridyl-S-[…] complex) under the influence of the cannabinoids. The following concentrations of the cannabinoids were prepared: 25, 100, and 200 μg/mL in Milli-Q water. […] The procedure was carried out as follows: each compound, at a concentration of 1 mL, was mixed with 1 mL of 0.2 M sodium phosphate buffer (pH 6.6) and 1 mL of 1% potassium ferricyanide. The mixture was vortexed and incubated for 30 min. at 37 °C. After the incubation, 1 mL of 10% trichloroacetic acid (w/v) was added to each sample, and the preparations were centrifuged at 1000 g for 5 min. Next, an equal volume of Milli-Q water and the upper layer of the samples (1 mL + 1 mL) were mixed with 100 μL of 0.1% ferric chloride and subjected to spectrophotometric reading at 700 nm using an EL800 Universal Microplate Reader (BioTek Instruments, Winooski, VT, USA). The higher the absorbance, the higher the iron ion-reducing activity of the tested cannabinoids is.

The test system of data set [4] is CCD 841 CoTr cells. Nature of the data set: Flow cytometry annexin V-FITC/PI, cell death types in CCD 841 CoTr cells. Conditions: 25 μg/mL, 24 h. Format: cell-based, human. As for the experimental part: (§1) In a further flow cytometric study measuring normal and tumor cell death types, the cells were exposed to the cannabinoids at a concentration of 25 μg/mL for 24 h.
(§2) The annexin V-fluorescein isothiocyanate (FITC)/propidium iodide (PI) apoptosis kit (BD Biosciences, BD Pharmingen™, San Jose, CA, USA) was used for the quantitative analysis of cannabinoid-induced cell death.
(§3) For the analyses, both adhered (after detaching the cells with 10 mM EDTA in PBS w/o Ca^2+ and Mg^2+ ions solution) and floating cells were collected after 24 h of incubation with the tested cannabinoids. After collection, the cells were gently centrifuged (1000 rpm/5 min.). Next, the supernatant was discarded, and the cell pellet was suspended in warm PBS w/o Ca^2+ and Mg^2+ ions and incubated for 5 min. at room temperature. The centrifugation procedure was repeated again and, following the manufacturer’s procedure, the cells were suspended in 100 μL of 1X Annexin V Binding Buffer with 5 μL of FITC Annexin V […] and 5 μL of propidium iodide (PI) (5 mM). The preparation was gently vortexed and incubated at room temperature for 15 min. in the dark. After that time, the cells were subjected to cytometric analysis. Before dosing the cells into the cytometer, 400 μL of 1X Binding Buffer was added. The cells were analyzed using a flow cytometer (BD FACSCalibur) with CellQuest Pro Version 6.0 software within 1 h after the staining was completed.

Experiment in data set [5]: as above
It counts as cell-based, human. Conditions: human, CCD 841 CoTr cells (normal cells), read-out: Percentage of viable cells. Here is the method:
as §1, §2, §3

The mark [6] stands for this setting: cannabinoid concentration 25 μg/mL.
Setting [7] is: cannabinoid concentration 100 μg/mL.
Where [8] appears, read: cannabinoid concentration 200 μg/mL.

As a reminder, the IC50 is the concentration needed to halve the response being measured. Consider `CCCCCc1cc(O)c2c(c1)OC(C)(CCC=C(C)C)C=C2` (stereo not shown) [CBC, cannabichromene], for which the entries for the “Reduction Value Corresponding to the Trolox Concentration (DPPH)” value (from here on “Reduction Value Corresponding … (DPPH)”) in data set [1] (setting [6]), in data set [1] (setting [7]) and in data set [1] (setting [8]) were 0 µg/mL, 0 µg/mL and 0.487 ± 0.341 µg/mL, respectively. In addition, the “Activity in reducing the free oxygen radical DPPH (in words)” value in data set [1] (lower concentrations (<100 μg/mL)) was “did not express any activity”. The IC50 in data set [2] was 176 µg/mL (≈ 560 µM). The “Reduction Value Corresponding to the Ascorbic Acid Concentration (FRAP)” value (shortened to “Reduction Value Corresponding … (FRAP)”) in data set [3] (setting [6]) turned out to be 0.151 ± 0.001 µg/mL; in data set [3] (setting [7]), 0.453 ± 0.104 µg/mL; in data set [3] (setting [8]), 1.008 ± 0.403 µg/mL. Besides, the “Percentage of cells in early apoptosis” value in data set [4] is reported as 2.51 ± 0.54%. The “Percentage of cells in late apoptosis” value in data set [4] came to 5.58 ± 1.02%. Besides, the “Percentage of cells in necrosis” value in data set [4] is recorded as 0.54 ± 0.39%. Besides, the “Reduction in the number of viable normal cells compared to the control” value (from here on “Reduction in the number”) in data set [4] is “did not significantly affect”. In addition, the viability at 24 h, 25 μg/mL in data set [5] was determined as 91.4 ± 1.19%.
For the compound `CCCCCc1cc(O)cc(O)c1C/C=C(\C)CCC=C(C)C` [abn-CBG, abnormal cannabigerol], the “Reduction Value Corresponding … (DPPH)” value in data set [1] (setting [6]) came to 0.074 ± 0.056 µg/mL. For the same compound, the “Reduction Value Corresponding … (DPPH)” value in data set [1] (setting [7]) came to 0.216 ± 0.133 µg/mL. Further, the “Reduction Value Corresponding … (DPPH)” value in data set [1] (setting [8]) worked out at 0.264 ± 0.198 µg/mL. In addition, in data set [2], the IC50 was determined as 19.6 µg/mL (≈ 62 µM). Moreover, the “Reduction Value Corresponding … (FRAP)” value in data set [3] (setting [6]) was 0.857 ± 0.316 µg/mL. Further, the “Reduction Value Corresponding … (FRAP)” value in data set [3] (setting [7]) was 1.059 ± 0.328 µg/mL. Also, in data set [3] (setting [8]), the “Reduction Value Corresponding … (FRAP)” value was 1.411 µg/mL and 1.411 ± 0.465 µg/mL. For the same compound, in data set [4], the “Cells in necrosis, more than in the control” value is listed as 47.27%; the “Early and late apoptosis together, dying cells compared to the control” value worked out at 19.52%; the “Percentage of cells in early apoptosis” value turned out to be 8.57 ± 1.67 %; the “Percentage of cells in late apoptosis” value worked out at 18.36 ± 3.62 %. Besides, in data set [4], the “Percentage of cells in necrosis” value is reported as 47.55 ± 4.12 % and the “Reduction in the number” value is listed as 66.79%. In addition, in data set [5], the viability at 24 h, 25 μg/mL was 25.5 ± 1.2%.
`CCCCCc1cc2c3c(c1)OC(C)(C)C1CCC(C)(CC31)O2` (stereo not shown) [CBT, cannabicitran]: in data set [1] (setting [6]), the “Reduction Value Corresponding … (DPPH)” value is 0.280 µg/mL and 0.280 ± 0.190 µg/mL. The “Reduction Value Corresponding … (DPPH)” value in data set [1] (setting [7]) was determined as 0.487 ± 0.104 µg/mL. In addition, the “Reduction Value Corresponding … (DPPH)” value in data set [1] (setting [8]) is 0.593 µg/mL and 0.593 ± 0.278 µg/mL. In addition, the half-inhibitory concentration (IC50) in data set [2] came out at 69.1 µg/mL (≈ 220 µM). Also, in data set [3] (setting [6]), the “Reduction Value Corresponding … (FRAP)” value worked out at 0.353 ± 0.110 µg/mL. Besides, in data set [3] (setting [7]), the “Reduction Value Corresponding … (FRAP)” value is 0.353 ± 0.201 µg/mL. The “Reduction Value Corresponding … (FRAP)” value in data set [3] (setting [8]) came to 0.504 ± 0.258 µg/mL. Besides, in data set [4], the “Cells in late apoptosis, more than in the control” value is recorded as 3.12%; the “Percentage of cells in early apoptosis” value is 2.90 ± 0.74%; the “Percentage of cells in late apoptosis” value is 8.72 ± 1.91 %; the “Percentage of cells in necrosis” value came to 1.08 ± 0.56 %. Besides, the “Reduction in the number” value in data set [4] is 5.02%. Moreover, the viability at 24 h, 25 μg/mL in data set [5] turned out to be 87.3 ± 2.11%.

Values taken from paper PMC11475369, “Exploring the Potential of Synthetic Cannabinoids: Modulation of Biological Activity of Normal and Cancerous Human Colon Epithelial Cells” (Cells, 2024).
